In assay [1] the target is T1, human glucagon receptor (Homo sapiens, UniProt P47871).
T1 construct: expressed in transfected cells; host or cells: BHK (baby hamster kidney) cells, membrane preparation
The assay is described as follows: Glucagon Binding Assay (II). How it is done:
Glucagon Binding Assay (II)
BHK (baby hamster kidney cell line) cells are transfected with the human glucagon receptor and a membrane preparation of the cells is prepared.
All steps in the membrane preparation are kept on ice or performed at 4° C. BHK cells are harvested and centrifuged. The pellet is resuspended in homogenisation buffer (25 mM HEPES, pH=7.4, 2.5 mM CaCl2, 1.0 mM MgCl2, 250 mg/L bacitracin, 0.1 mM Pefabloc), homogenised 2×10 sec using Polytron 10-35 homogenizer (Kinematica) and added the same amount of homogenisation buffer as used for resuspension. After centrifugation (15 min at 2000×g) the supernatant is transferred to cold centrifuge tubes and centrifuged for 45 min at 40.000×g. The pellet is resuspended in homogenisation buffer, homogenised 2×10 sec (Polytron) and additional homogenisation buffer is added. The suspension is centrifuged for 45 min at 40.000×g and the pellet is resuspended in resuspension buffer (25 mM HEPES, pH=7.4, 2.5 mM CaCl2, 1.0 mM MgCl2) and homogenised 2×10 sec. (Polytron). […] Stabilisation buffer (25 mM HEPES, pH=7.4, 2.5 mM CaCl2, 1.0 mM MgCl2, 1% bovine serum albumin, 500 mg/L bacitracin, 2.5 M sucrose) is added and the membrane preparation is stored at −80° C.
The glucagon binding assay is carried out in opti plates (Polystyrene Microplates, Packard). 50 μL assay buffer (25 mM HEPES, pH=7.5, 2.5 mM CaCl2, 1.0 mM MgCl2, 0.003% Tween-20, 0.005% bacitracin, 0.05% sodium azide) and 5 μL glucagon or test compound (in DMSO) are added to each well. […] Finally 50 μL WGA beads containing 1 mg beads are transferred to the well. The opti plates are incubated for 4 hours on a shaker and then settled for 8-48 hours. The opti plates are counted in a Topcounter. Non-specific binding is determined with 500 nM of glucagon.

In assay [2] the target is T2, human GIP receptor (Homo sapiens, UniProt P48546).
T2 construct: expressed in transfected cells; host or cells: BHK (baby hamster kidney) cells, membrane preparation
T2 sequence (P48546 22-466): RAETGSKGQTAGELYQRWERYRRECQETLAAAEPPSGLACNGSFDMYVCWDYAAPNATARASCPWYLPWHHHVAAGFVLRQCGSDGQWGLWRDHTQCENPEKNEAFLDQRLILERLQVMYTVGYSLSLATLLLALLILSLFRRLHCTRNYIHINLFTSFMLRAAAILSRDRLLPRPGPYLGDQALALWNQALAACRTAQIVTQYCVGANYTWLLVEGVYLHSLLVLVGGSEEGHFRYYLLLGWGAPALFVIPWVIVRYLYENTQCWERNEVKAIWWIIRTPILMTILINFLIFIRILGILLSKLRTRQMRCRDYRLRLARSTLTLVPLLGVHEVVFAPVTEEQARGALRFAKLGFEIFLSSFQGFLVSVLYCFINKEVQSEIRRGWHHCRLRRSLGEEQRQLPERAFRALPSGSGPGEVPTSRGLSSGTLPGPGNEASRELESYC
The assay is described as follows: GIP Binding Assay. Particulars: membranes of BHK cells transfected with human GIP receptor, 125I-GIP, SPA; read-out: GIP Bd Assay IC50. How it is done: BHK (baby hamster kidney cell line) cells are transfected with the human GIP receptor and a membrane preparation of the cells is prepared.
All steps in the membrane preparation are kept on ice or performed at 4° C. BHK cells are harvested and centrifuged. The pellet is resuspended in homogenisation buffer (25 mM) HEPES, pH=7.4, 2.5 mM CaCl2, 1.0 mM MgCl2, 250 mg/L bacitracin, 0.1 mM Pefabloc), homogenised 2×10 sec using Polytron 10-35 homogenizer (Kinematica) and added the same amount of homogenisation buffer as used for resuspension. After centrifugation (15 min at 2000×g) the supernatant is transferred to cold centrifuge tubes and centrifuged for 45 min at 40.000×g. The pellet is resuspended in homogenisation buffer, homogenised 2×10 sec (Polytron) and additional homogenisation buffer is added. The suspension is centrifuged for 45 min at 40.000×g and the pellet is resuspended in resuspension buffer (25 mM HEPES, pH=7.4, 2.5 mM CaCl2, 1.0 mM MgCl2) and homogenised 2×10 sec. (Polytron). […] Stabilisation buffer (25 mM HEPES, pH=7.4, 2.5 mM CaCl2, 1.0 mM MgCl2, 1% bovine serum albumin, 500 mg/L bacitracin, 2.5 M sucrose) is added and the membrane preparation is stored at −80° C.
The GIP binding assay is carried out in opti plates (Polystyrene Microplates, Packard). 50 μL assay buffer (25 mM HEPES, pH=7.5, 2.5 mM CaCl2, 1.0 mM MgCl2, 0.003% Tween-20, 0.005% bacitracin, 0.05% sodium azide) and 5 μL GIP or test compound (in DMSO) are added to each well. […] Finally 50 μL WGA beads containing 1 mg beads are transferred to the well. The opti plates are incubated for 3.5 hours on a shaker and then settled for 8-48 hours. The opti plates are counted in a Top-counter. Non-specific binding is determined with 500 nM of GIP.

Where [3] appears, read: membranes of BHK cells transfected with human glucagon receptor, 125I-glucagon, SPA, read-out: Glu Bd Assay (II) IC50.

Molecules are shown by their SMILES. pIC50: −log10 of the molar value. Read-outs that look alike come from different tables or passages of the source.

As usually defined, the pIC50 is the negative decadic logarithm of the IC50, by convention in mol/L.

T1 sequence (P47871 26-477): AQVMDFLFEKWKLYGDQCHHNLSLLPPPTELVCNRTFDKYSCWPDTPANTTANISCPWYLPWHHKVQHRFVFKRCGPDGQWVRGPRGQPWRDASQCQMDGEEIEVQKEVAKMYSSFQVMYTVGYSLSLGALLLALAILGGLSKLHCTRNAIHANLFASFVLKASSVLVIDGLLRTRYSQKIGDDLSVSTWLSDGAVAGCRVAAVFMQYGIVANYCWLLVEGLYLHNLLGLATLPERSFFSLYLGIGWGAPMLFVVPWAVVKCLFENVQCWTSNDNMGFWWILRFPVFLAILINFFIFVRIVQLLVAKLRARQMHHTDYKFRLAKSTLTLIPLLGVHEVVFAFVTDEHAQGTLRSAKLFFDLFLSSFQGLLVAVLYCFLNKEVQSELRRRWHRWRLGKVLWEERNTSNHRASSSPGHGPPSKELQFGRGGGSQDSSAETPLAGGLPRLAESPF

As for `O=C(NC[C@@H](O)C(=O)O)c1ccc(CN(C(=O)Nc2ccc(F)c(F)c2)c2ccc(C3=CCCCC3)cc2)cc1` [Example 48, (R)-3-{4-[1-(4-Cyclohex-1-enylphenyl)-3-(3,4-difluorophenyl)ureidomethyl]benzoylamino}-2-hydroxypropionic acid], the values for the pIC50 in assay [1] (setting [3]) and in assay [2] were 6.74 and under 5.52, respectively.

With `O=C(NC[C@@H](O)C(=O)O)c1ccc(CN(C(=O)CCc2cc(C(F)(F)F)cc(C(F)(F)F)c2)c2ccc(C3CCCCC3)cc2)cc1` [Example 72, (R)-3-(4-{[(3-(3,5-Bis(trifluoromethyl)phenyl)propionyl)-(4-cyclohexylphenyl)amino]methyl}benzoylamino)-2-hydroxypropionic acid], the pIC50 in assay [1] (setting [3]) was 6.27; in assay [2], under 5.52.

As for `O=C(NC[C@@H](O)C(=O)O)c1ccc(CN(C(=O)Nc2ccc(F)c([N+](=O)[O-])c2)c2ccc(C3CCCCC3)cc2)cc1` [Example 50, (R)-3-{4-[1-(4-Cyclohexylphenyl)-3-(4-fluoro-3-nitrophenyl)ureidomethyl]benzoylamino}-2-hydroxypropionic acid], the pIC50 in assay [1] (setting [3]) was 6.92; in assay [2], under 5.52.

As for `N#Cc1cc(NC(=O)N(Cc2ccc(C(=O)NC[C@@H](O)C(=O)O)cc2)c2ccc(C3=CCCCC3)cc2)cc(C(F)(F)F)c1` [Example 7, (R)-3-{4-[3-(3-Cyano-5-trifluoromethylphenyl)-1-(4-cyclohex-1-enylphenyl)ureidomethyl]benzoylamino}-2-hydroxypropionic acid], the pIC50 is 7.59 in assay [1] (setting [3]) and 6.53 in assay [2].

Consider `O=C(NC[C@@H](O)C(=O)O)c1ccc(CN(C(=O)Nc2cc(Br)cc(C(F)(F)F)c2)c2ccc(C3=CCCCC3)cc2)cc1` [Example 9, (R)-3-{4-[3-(3-Bromo-5-trifluoromethylphenyl)-1-(4-cyclohex-1-enylphenyl)ureidomethyl]benzoylamino}-2-hydroxypropionic acid], for which the negative logarithm of the IC50 (pIC50) in assay [1] (setting [3]) is 7.96; in assay [2], 6.55.

For the compound `O=C(NC[C@@H](O)C(=O)O)c1ccc(CN(C(=O)Cc2ccc(Cl)c(Cl)c2)c2ccc(C3CCCCC3)cc2)cc1` [Example 68, (R)-3-[4-({(4-Cyclohexylphenyl)-[(3,4-dichlorophenyl)acetyl]amino}methyl)benzoylamino]-2-hydroxypropionic acid], the figures for the pIC50 in assay [1] and in assay [2] were 6.28 and under 5.52, respectively.

In the case of `C[C@H](NC(=O)N(Cc1ccc(C(=O)NC[C@@H](O)C(=O)O)cc1)c1ccc(C2CCCCC2)cc1)c1ccc(Cl)cc1` [Example 35, 3-{4-[3-[1(S)-(4-Chlorophenyl)ethyl]-1-(4-cyclohexylphenyl)ureidomethyl]benzoylamino}-2(R)-hydroxypropionic Acid], the figures for the pIC50 in assay [1] (setting [3]) and in assay [2] were 7.40 and 6.36, respectively.

As to `O=C(NC[C@@H](O)C(=O)O)c1ccc(CN(C(=O)Nc2cc(Cl)cc(Cl)c2)c2ccc(C3=CCCCC3)cc2)cc1` [Example 19, (R)-3-{4-[1-(4-Cyclohex-1-enylphenyl)-3-(3,5-dichlorophenyl)ureidomethyl]benzoylamino}-2-hydroxypropionic acid], the pIC50 was 7.82 in assay [1] (setting [3]) and 6.04 in assay [2].

In the case of `CC(C)(C)C1CCC(N(Cc2ccc(C(=O)NC[C@@H](O)C(=O)O)cc2)C(=O)c2csc3ccc(Cl)cc23)CC1` (stereo partly drawn) [Example 61, (R)-3-(4-{[(4-tert-Butylcyclohexyl)-(5-chlorobenzo[b]thiophene-3-carbonyl)amino]methyl}-benzoylamino)-2-hydroxypropionic acid], the values for the pIC50 in assay [1] (setting [3]) and in assay [2] were 6.12 and under 5.52, respectively.

On to `O=C(NC[C@@H](O)C(=O)O)c1ccc(CN(C(=O)Nc2ccc(Cl)c(C(F)(F)F)c2)c2ccc(C3CCCCC3)cc2)cc1` [Example 49, (R)-3-{4-[3-(4-Chloro-3-trifluoromethylphenyl)-1-(4-cyclohexylphenyl)ureidomethyl]benzoylamino}-2-hydroxypropionic acid], for which the negative logarithm of the IC50 (pIC50) in assay [1] (setting [3]) was 7.60; in assay [2], 6.80.

In the case of `O=C(NC[C@@H](O)C(=O)O)c1ccc(CN(C(=O)NCc2ccccc2-c2ccccc2)c2ccc(C3CCCCC3)cc2)cc1` [Example 36, 3-{4-[3-Biphenyl-2-ylmethyl-1-(4-cyclohexylphenyl)ureidomethyl]benzoylamino}-2(R)-hydroxypropionic acid], the pIC50 in assay [1] (setting [3]) was 7.85; in assay [2], 6.55.

Regarding `CC(C)(C)C1CCC(N(Cc2ccc(C(=O)NC[C@@H](O)C(=O)O)cc2)C(=O)Nc2ccc(Cl)c(Cl)c2)CC1` (stereo partly drawn) [Example 41, (R)-3-{4-[1-(4-tert-Butylcyclohexyl)-3-(3,4-dichlorophenyl)ureidomethyl]benzoylamino}-2-hydroxypropionic acid], the pIC50 is 6.88 in assay [1] (setting [3]) and 5.80 in assay [2].

For `O=C(NC[C@@H](O)C(=O)O)c1ccc(CN(C(=O)Nc2cc(C(F)(F)F)cc(C(F)(F)F)c2)c2ccc(C3CCCCC3)cc2)cc1` [Example 2, (R)-3-{4-[3-(3,5-Bis(trifluoromethyl)phenyl)-1-(4-cyclohexylphenyl)ureidomethyl]benzoylamino}-2-hydroxypropionic acid], the negative logarithm of the IC50 (pIC50) in assay [1] (setting [3]) is 7.92; in assay [2] it was 6.57.

Take `O=C(NC[C@@H](O)C(=O)O)c1ccc(CN(C(=O)Nc2ccc(OC(F)(F)F)cc2)c2ccc(C3CCCCC3)cc2)cc1` [Example 4, (R)-3-{4-[1-(4-Cyclohexylphenyl)-3-(4-trifluoromethoxyphenyl)ureidomethyl]benzoylamino}-2-hydroxypropionic acid]: the negative logarithm of the IC50 (pIC50) was 7.64 in assay [1] (setting [3]) and 6.91 in assay [2].

In the case of `N#Cc1cc(NC(=O)N(Cc2ccc(C(=O)NC[C@@H](O)C(=O)O)cc2)c2ccc(C3CCCCC3)cc2)cc(C(F)(F)F)c1` [Example 8, (R)-3-{4-[3-(3-Cyano-5-trifluoromethylphenyl)-1-(4-cyclohexylphenyl)ureidomethyl]benzoylamino}-2-hydroxypropionic acid], the negative-log IC50 (pIC50) in assay [1] (setting [3]) was 7.85; in assay [2] it was 6.50.

For `Cc1cc(C)cc(NC(=O)N(Cc2ccc(C(=O)NC[C@@H](O)C(=O)O)cc2)[C@H]2CC[C@H](C(C)(C)C)CC2)c1` [Example 26, Trans-(R)-3-{4-[-3-(3,5-bis(methyl)phenyl)-1-(4-tert-butylcyclohexyl)ureidomethyl]benzoylamino}-2-hydroxypropionic Acid], the pIC50 was 7.04 in assay [1] (setting [3]) and 6.15 in assay [2].

The values above are taken from US6953812B2, “Glucagon antagonists/inverse agonists” (Novo Nordisk, Inc., priority 2000, dated 2005).
